Assay results from article PMC8454092 (European Journal of Medicinal Chemistry, 2021).

Tests used:
X4 strain of HIV-1 = settings: cited from earlier work
Covid-19 = settings: human, in vivo; cited from earlier work
[1] = human
EBOV infection = settings: in vivo; cited from earlier work
EBOV trVLP RNA synthesis = format: cell-based, Ebola virus
SARS-CoV-2 RNA synthesis = format: cell-based
EBOV trVLP = format: cell-based, Ebola virus; settings: for IC50: read-out: EBOV trVLP IC50
Ce-FF = format: cell-based; settings: read-out: Ce-FF IC50
SARS-CoV-2 = format: cell-based; settings: for IC50: read-out: VeroE6 IC50

Molecule: CCCCCCCCCCCCCC(=O)OC[C@@H]1O[C@H](n2cc(F)c(N)nc2=O)CS1 [5′-O-tetradecanoyl derivative of FTC]
- fold more activity than FTC (X4 strain of HIV-1): 19 fold

Molecule: CCC(CC)COC(=O)[C@H](C)N[P@](=O)(OC[C@H]1O[C@@](C#N)(c2ccc3c(N)ncnn23)[C@H](O)[C@@H]1O)Oc1ccccc1 [RDV, remdesivir, reference compound]
- median time to recovery (Covid-19): 11 days
- mortality rate (Covid-19): 7.1%
- active triphosphate metabolite observed at 12 h [1]: approximately 22.2%
- active triphosphate metabolite observed at 24 h [1]: 26.3%
- degradation after 1 h [1]: around 13%
- mortality (EBOV infection): 53%
- EBOV trVLP viral RNA synthesis (EBOV trVLP RNA synthesis): significant reduction in viral RNA synthesis
- SARS-CoV-2 viral RNA synthesis (SARS-CoV-2 RNA synthesis): significant reduction in viral RNA synthesis

Molecule: CCCCCCCCCCCCCC(=O)O[C@H]1[C@@H](OC(=O)CCCCCCCCCCCCC)[C@](C#N)(c2ccc3c(N)ncnn23)O[C@@H]1CO[P@@](=O)(N[C@H](C)C(=O)OCC(CC)CC)Oc1ccccc1 [Compound 5a, ((2R,3R,4R,5R)-2-(4-Aminopyrrolo[2,1-f][1,2,4]triazin-7-yl)-2-cyano-5-((((((R)-1-(2-ethylbutoxy)-1-oxopropan-2-yl)amino)(phenoxy)phosphoryl)oxy)methyl)tetrahydro-furan-3,4-diyl ditetradecanoate]
- SARS-CoV-2 viral RNA synthesis (SARS-CoV-2 RNA synthesis): significant reduction in viral RNA synthesis was observed for all compounds apart from disubstituted compound 5a

Molecule: CCCCCCCCCCOCCC(=O)O[C@H]1[C@@H](O)[C@](C#N)(c2ccc3c(N)ncnn23)O[C@@H]1CO[P@@](=O)(N[C@H](C)C(=O)OCC(CC)CC)Oc1ccccc1 [Compound 4b, (2R,3S,4R,5R)-5-(4-Aminopyrrolo[2,1-f][1,2,4]triazin-7-yl)-5-cyano-2-((((((R)-1-(2-ethylbutoxy)-1-oxopropan-2-yl)amino)(phenoxy)phosphoryl)oxy)methyl)-4-hydroxy-tetrahydrofuran-3-yl-3-(decyloxy)propanoate]
- activity against EBOV trVLP (EBOV trVLP): comparable activity with RDV
- EBOV trVLP viral RNA synthesis (EBOV trVLP RNA synthesis): significant reduction in viral RNA synthesis
- SARS-CoV-2 viral RNA synthesis (SARS-CoV-2 RNA synthesis): significant reduction in viral RNA synthesis

Molecule: (2R,3R,4R,5R)-2-(4-Aminopyrrolo[2,1-f][1,2,4]triazin-7-yl)-2-cyano-5-((((((R)-1-(2-ethylbutoxy)-1-oxopropan-2-yl)amino)(phenoxy)phosphoryl)oxy)methyl)tetrahydrofuran-3,4-diyl ditetradecanoate [Compound 5b]
- CC50 (Huh-7 cells): > 50 µM
- activity against EBOV trVLP (EBOV trVLP): no inhibitory activity
- IC50 (EBOV trVLP): > 50 µM
- IC50 (Ce-FF): > 50 µM
- IC50 (SARS-CoV-2): > 50 µM
- EBOV trVLP viral RNA synthesis (EBOV trVLP RNA synthesis): significant reduction in viral RNA synthesis was observed for all compounds apart from disubstituted compound 5b
- CC50 (Vero E6 cells): > 50 µM

Molecule: [N-]=[N+]=NCCCCCCCCCCCC(=O)O [12-Azidododecanoic acid, reference compound]
- activity against EBOV trVLP (EBOV trVLP): no inhibitory activity
- anti-SARS-CoV-2 activity in Vero E6 cells (SARS-CoV-2): did not exhibit any anti-SARS-CoV-2 activity

Molecule: CCCCCCCCCCOCCC(=O)O[C@@H]1[C@H](O)[C@@H](CO[P@@](=O)(N[C@H](C)C(=O)OCC(CC)CC)Oc2ccccc2)O[C@@]1(C#N)c1ccc2c(N)ncnn12 [Compound 3b]
- activity against EBOV trVLP (EBOV trVLP): comparable with RDV

Molecule: CCSCCCCCCCCCCCC(=O)O[C@@H]1[C@H](O)[C@@H](CO[P@@](=O)(N[C@H](C)C(=O)OCC(CC)CC)Oc2ccccc2)O[C@@]1(C#N)c1ccc2c(N)ncnn12 [Compound 3e]
- activity against EBOV trVLP (EBOV trVLP): comparable with RDV

Molecule: CCCCCCCCCCCCCC(=O)O[C@@H]1[C@H](O)[C@@H](CO[P@@](=O)(N[C@H](C)C(=O)OCC(CC)CC)Oc2ccccc2)O[C@@]1(C#N)c1ccc2c(N)ncnn12 [Compound 3a, (2R,3R,4R,5R)-2-(4-Aminopyrrolo[2,1-f][1,2,4]triazin-7-yl)-2-cyano-5-((((((R)-1-(2-ethylbutoxy)-1-oxopropan-2-yl)amino)(phenoxy)phosphoryl)oxy)methyl)-4-hydroxytetra-hydrofuran-3-yl tetradecanoate]
- EBOV trVLP viral RNA synthesis (EBOV trVLP RNA synthesis): significant reduction in viral RNA synthesis
- SARS-CoV-2 viral RNA synthesis (SARS-CoV-2 RNA synthesis): significant reduction in viral RNA synthesis

Molecule: CCCCCCCCCCCCCC(=O)O [Myristic acid, reference compound]
- activity against EBOV trVLP (EBOV trVLP): no inhibitory activity
- anti-SARS-CoV-2 activity in Vero E6 cells (SARS-CoV-2): did not exhibit any anti-SARS-CoV-2 activity

Molecule: CCC(CC)COC(=O)[C@@H](C)N[P@](=O)(OC[C@H]1O[C@@](C#N)(c2ccc3c(N)ncnn23)[C@H](O)[C@@H]1OC(=O)CCCCCCCCCCCN=[N+]=[N-])Oc1ccccc1 [Compound 4c, (2R,3S,4R,5R)-5-(4-Aminopyrrolo[2,1-f][1,2,4]triazin-7-yl)-5-cyano-2-((((((R)-1-(2-ethylbutoxy)-1-oxopropan-2-yl)amino)(phenoxy)phosphoryl)oxy)methyl)-4-hydroxy-tetrahydrofuran-3-yl-12-azidododecanoate]
- active triphosphate metabolite observed at 8 h [1]: 11.3%
- active triphosphate metabolite observed at 12 h [1]: 10.04%
- active triphosphate metabolite observed at 24 h [1]: 19.01%

Molecule: (2R,3R,4R,5R)-2-(4-Aminopyrrolo[2,1-f][1,2,4]triazin-7-yl)-2-cyano-5-((((((R)-1-(2-ethylbutoxy)-1-oxopropan-2-yl)amino)(phenoxy)phosphoryl)oxy)methyl)-4-hydroxytetra hydrofuran-3-yl palmitate [Compound 3c]
- CC50 (Huh-7 cells): 27 µM
- IC50 (EBOV trVLP): 0.5 µM
- IC50 (Ce-FF): > 50 µM
- IC50 (SARS-CoV-2): 4.6 µM
- CC50 (Vero E6 cells): > 50 µM

Molecule: CCSCCCCCCCCCCCC(=O)O [12-thioethyldodecanoic acid, reference compound]
- activity against EBOV trVLP (EBOV trVLP): no inhibitory activity
- anti-SARS-CoV-2 activity in Vero E6 cells (SARS-CoV-2): did not exhibit any anti-SARS-CoV-2 activity

Molecule: CCCCCCCCCCOCCC(=O)O [4-Oxatetradecanoic acid, reference compound]
- activity against EBOV trVLP (EBOV trVLP): no inhibitory activity
- anti-SARS-CoV-2 activity in Vero E6 cells (SARS-CoV-2): did not exhibit any anti-SARS-CoV-2 activity

B1: MAB114 (antibody, chains of the INN, looked up, V domains shown)
VH: EVQLVESGGGLIQPGGSLRLSCAASGFALRMYDMHWVRQTIDKRLEWVSAVGPSGDTTYADSVKGRFAVSRENAKNSLSLQMNSLTAGDTAIYYCVRSDRGVAGLFDSWGQGILVTVSS
VL: DIQMTQSPSSLSASVGDRITITCRASQAFDNYVAWYQQRPGKVPKLLISAASALHAGVPSRFSGSGSGTHFTLTISSLQPEDVATYYCQNYNSAPLTFGGGTKVEIK
- mortality (EBOV infection): 35%
